Assay results published in ChEMBL document CHEMBL1131694, “New minimal substrate structural requirements in the enzymatic peroxidation of alkenes with soybean lipoxygenase” (Bioorg Med Chem Lett, 1999).
Values belong to the compound of their own block, whether it stands above or below them. Activity calls are given as the source filed them. The rule behind the calls is not given here.

Legend:
[1] = target: T1, Seed linoleate 13S-lipoxygenase-1 (Glycine max) (UniProt P08170); assay: Ratio of proximal to distal region oxidation by 1-lipoxygenase isolated from soybean; Ratio of proximal and distal was 1:99
T1 sequence (whole entry): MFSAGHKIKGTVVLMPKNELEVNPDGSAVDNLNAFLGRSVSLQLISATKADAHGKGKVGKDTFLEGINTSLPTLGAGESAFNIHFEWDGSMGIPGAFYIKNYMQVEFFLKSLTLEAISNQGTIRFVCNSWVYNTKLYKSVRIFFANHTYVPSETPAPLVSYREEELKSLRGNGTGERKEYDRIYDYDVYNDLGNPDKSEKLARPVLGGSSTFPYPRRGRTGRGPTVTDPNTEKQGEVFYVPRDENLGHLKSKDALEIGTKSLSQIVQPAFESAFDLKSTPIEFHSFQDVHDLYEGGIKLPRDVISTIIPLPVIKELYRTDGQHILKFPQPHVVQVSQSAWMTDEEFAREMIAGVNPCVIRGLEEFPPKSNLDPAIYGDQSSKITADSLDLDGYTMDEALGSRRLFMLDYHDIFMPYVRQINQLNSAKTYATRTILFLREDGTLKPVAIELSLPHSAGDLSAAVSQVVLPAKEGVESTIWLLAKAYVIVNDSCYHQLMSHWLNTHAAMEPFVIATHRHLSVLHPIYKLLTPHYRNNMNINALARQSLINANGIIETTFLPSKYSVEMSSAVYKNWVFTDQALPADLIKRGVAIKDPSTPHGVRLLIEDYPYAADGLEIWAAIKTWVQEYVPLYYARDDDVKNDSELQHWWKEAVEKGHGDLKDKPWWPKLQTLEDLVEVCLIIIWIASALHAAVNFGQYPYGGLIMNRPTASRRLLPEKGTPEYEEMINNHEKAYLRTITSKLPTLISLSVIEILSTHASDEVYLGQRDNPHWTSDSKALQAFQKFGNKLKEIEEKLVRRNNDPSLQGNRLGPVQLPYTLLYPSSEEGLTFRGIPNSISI

[2] = Partition coefficient (logP); type: physicochemical; conditions: octanol/water
[3] = target: T1, Seed linoleate 13S-lipoxygenase-1 (Glycine max); assay: Ratio of proximal to distal region oxidation by 1-lipoxygenase isolated from soybean; Ratio of proximal and distal was 95:5
[4] = target: T1, Seed linoleate 13S-lipoxygenase-1 (Glycine max)
[5] = target: T1, Seed linoleate 13S-lipoxygenase-1 (Glycine max); assay: Ratio of proximal to distal region oxidation by 1-lipoxygenase isolated from soybean; Ratio of proximal and distal was 10:90
[6] = target: T1, Seed linoleate 13S-lipoxygenase-1 (Glycine max); assay: Ratio of proximal to distal region oxidation by 1-lipoxygenase isolated from soybean; Ratio of proximal and distal was 87:13
[7] = target: T1, Seed linoleate 13S-lipoxygenase-1 (Glycine max); assay: Ratio of proximal to distal region oxidation by 1-lipoxygenase isolated from soybean; Ratio of proximal and distal was 50:50
[8] = target: T1, Seed linoleate 13S-lipoxygenase-1 (Glycine max); assay: Ratio of proximal to distal region oxidation by 1-lipoxygenase isolated from soybean; Ratio of proximal and distal was 25:75
[9] = target: T1, Seed linoleate 13S-lipoxygenase-1 (Glycine max); assay: Ratio of proximal to distal region oxidation by 1-lipoxygenase isolated from soybean; Ratio of proximal and distal was 99:1
[10] = target: T1, Seed linoleate 13S-lipoxygenase-1 (Glycine max); assay: Ratio of proximal to distal region oxidation by 1-lipoxygenase isolated from soybean; Ratio of proximal and distal was 89:11
[11] = target: T1, Seed linoleate 13S-lipoxygenase-1 (Glycine max); assay: Ratio of proximal to distal region oxidation by 1-lipoxygenase isolated from soybean; Ratio of proximal and distal was 35:65
[12] = target: T1, Seed linoleate 13S-lipoxygenase-1 (Glycine max); assay: Ratio of proximal to distal region oxidation by 1-lipoxygenase isolated from soybean; Ratio of proximal and distal was 76:24

Compound: CC(C)=CCC/C(C)=C/C/C=C\C=C\[C@@H](O)CCO
logP [2]: 3.7

Compound: CCCCC/C=C\C/C=C\CCCCCCCC(=O)O
Regiospecificity [4]: Active

Compound: CCCCCCCC/C=C\C/C=C\CCOC(=O)COCCO
Regiospecificity [5]: Ratio of proximal and distal was 10:90

Compound: [N-]=[N+]=NCC/C=C/C=C/[C@@H](O)CCO
logP ([2]; read-out: logP): 6.1

Compound: CCCCCCCC/C=C\C=C\[C@@H](O)CCO
logP ([2]; read-out: logP): 4.41

Compound: [N-]=[N+]=NCC/C=C\C/C=C\CCOC(=O)COCCO
Regiospecificity [10]: Ratio of proximal and distal was 89:11

Compound: CCCC/C=C\C=C\[C@@H](O)CCO
logP ([2]; read-out: logP): 2.82

Next, values leading:

Regiospecificity [1]: Ratio of proximal and distal was 1:99
Compound: CC(C)=CCC/C(C)=C/C/C=C\C/C=C\CCOC(=O)COCCO

Regiospecificity [3]: Ratio of proximal and distal was 95:5
Compound: CCCCC/C=C\C/C=C\CCOC(=O)CCCCC(=O)O

Regiospecificity [6]: Ratio of proximal and distal was 87:13
Compound: CCCCCC/C=C\C/C=C\CCOC(=O)CCCCC(=O)O

Regiospecificity [7]: Ratio of proximal and distal was 50:50
Compound: CCCCCCCC/C=C\C/C=C\CCOC(=O)CCCCC(=O)O

Regiospecificity [8]: Ratio of proximal and distal was 25:75
Compound: CCCCCCCCCC/C=C\C/C=C\CCOC(=O)CCCCC(=O)O

Regiospecificity [1]: Ratio of proximal and distal was 1:99
Compound: CC(C)=CCC/C(C)=C/C/C=C\C/C=C\CCOC(=O)CCCCC(=O)O

Regiospecificity [9]: Ratio of proximal and distal was 99:1
Compound: CCCCC/C=C\C/C=C\CCOC(=O)COCCO

Regiospecificity [11]: Ratio of proximal and distal was 35:65
Compound: CCCCCCCCC/C=C\C/C=C\CCOC(=O)CCCCC(=O)O

Regiospecificity [12]: Ratio of proximal and distal was 76:24
Compound: CCCCCCC/C=C\C/C=C\CCOC(=O)CCCCC(=O)O
